Laboratory results taken from patent US4552765A, “Aletheine derivatives” (Santen Pharmaceutical Co., Ltd., priority 1982, dated 1985).

System: CCl4-induced liver damage
Test: effect on CCl4-induced liver damage in rats (serum transaminase s-GOT and s-GPT)
Assay type: in vivo, Male wistar rats
Conditions: for serum transaminase s-GPT / serum transaminase s-GOT / s-GPT (inhibitory %) / s-GOT (inhibitory %): 300 mg/Kg orally, 60 min before CCl4 0.25 ml/Kg i.p., 24 h after CCl4; for serum transaminase s-GPT / serum transaminase s-GOT: mean ± standard deviation; for effect on liver damage: result in words
Source text: Generally, the effect of a certain compound on liver damage is examined by administering it to experimental animals before a liver damage inducer such as carbon tetrachloride, thioacetamide, bromobenzene, paracetamol, D-galactosamine, etc. Carbon tetrachloride (CCl4)-induced liver damage is commonly used as the model. The mechanism to induce liver damage is presumed as follows (Biochemical Pharmacology 21, 49 (1972), ibid., 25, 2163 (1976)). In this invention, the effect of the compounds were examined against CCl4 -induced liver damage using serum transaminase activities (s-GOT and s-GPT) as a parameter. Male wistar rats (6 animals per group), weighing about 170-200 g, fasted for 17 hours, were used in the experiments. Test compounds were given orally at a dose of 300 mg/Kg, and 60 minutes later CCl4 was administered intraperitoneally at a dose of 0.25 ml/Kg (5 ml/Kg as a 5%(v/v)solution in olive oil). As the control, olive oil only was given intraperitoneally at a dose of 5 ml/Kg. All animals were killed 24 hours after CCl4 administration and their s-GOT and s-GPT activities were determined.

[1] = Table I, vs control 11460 ± 1490
[2] = Table II, vs control 6400 ± 2590
[3] = Table II, vs control 13950 ± 4030

Compound | serum transaminase s-GPT (Table I, control 5100 ± 405) | serum transaminase s-GOT (Table I, control 11460 ± 1490) | s-GPT (inhibitory %) (Table I, vs control 5100 ± 405) | s-GOT (inhibitory %) [1] | serum transaminase s-GPT (Table II, control 6400 ± 2590) | serum transaminase s-GOT (Table II, control 13950 ± 4030) | s-GPT (inhibitory %) [2] | s-GOT (inhibitory %) [3] | effect on liver damage
O=C(CCNC(=O)c1ccccc1)NCCSC(=O)c1ccccc1 [compound No. 3, 3-Benzoylamino-N-(2-benzoylthioethyl)propionamide] | 2440 ± 960 Karmen unit/ml | 6150 ± 2990 Karmen unit/ml | 52% | 46% | – | – | – | – | –
CC(=O)NCCC(=O)NCCSC(C)=O [compound No. 6, 3acetylamino-N--(2acetylthioethyl)propionamide] | – | – | – | – | 1730 ± 800 Karmen unit/ml | 3370 ± 1360 Karmen unit/ml | 73% | 76% | superior effect on liver-damage
CC(=O)SCCNC(=O)CCNC(=O)OCc1ccccc1 [compound No. 1, N-(2-Acetylthioethyl)-3-(benzyloxycarbonylamino)propionamide] | 2590 ± 731 Karmen unit/ml | 5250 ± 1330 Karmen unit/ml | 49% | 54% | – | – | – | – | –
NCCC(=O)NCCS [β-aletheine, N-β-Alanyl-2-mercaptoethylamine] | – | – | – | – | – | – | – | – | excellent suppressive effect on liver damage
CCC(=O)SCCNC(=O)CCNC(=O)OCc1ccccc1 [compound No. 2, 3-(Benzyloxycarbonylamino)-N-(2-propionylthioethyl)-propionamide] | 1720 ± 613 Karmen unit/ml | 3550 ± 1150 Karmen unit/ml | 66% | 69% | – | – | – | – | –
O=C(CCNC(=O)OCc1ccccc1)NCCS [compound No. 5, 3-(benzyloxycarbonylamino)-N-(2-mercaptoethyl)propionamide] | – | – | – | – | 1900 ± 1640 Karmen unit/ml | 4450 ± 4430 Karmen unit/ml | 71% | 69% | superior effect on liver-damage
Cl.NCCC(=O)NCCS [compound No. 4, 3-amino-N-(2-mercaptoethyl)propionamide hydrochloride] | – | – | – | – | 1990 ± 1010 Karmen unit/ml | 4690 ± 2490 Karmen unit/ml | 69% | 67% | –
